Data as given in US20060013804A1, “Modulation of stem cell differentiation by modulation of caspase-3 activity” (Ottawa Health Research Institute, priority 2002, published 2006).

Test system: neurospheres
Assay: Cytotoxicity observed in neurosphere cultures
Format: cell-based, mouse
Conditions: neurosphere experiments
Source text: Under growth conditions, neurospheres readily stained for nestin, an intermediate protein highly expressed in early neuronal progenitors (Lendahl et al., Cell 60, 585-595). […] Subsequently, we compared neural differentiation without caspase 3 activity. […] Increased expression of GFAP, MBP are characteristic with the early formation of astrocytes and oligodendrocytes respectively (Gage, F. H. (2000) Science 287, 1433-1438).

For `CC(=O)N[C@@H](CC(=O)O)C(=O)N[C@@H](CCC(=O)O)C(=O)N[C@H](C(=O)N[C@H](C=O)CC(=O)O)C(C)C` [Ac-DEVD-CHO], the cytotoxicity was “high levels of cytotoxicity”.
